Like-named read-outs stand apart in the source and are kept apart here.
Experiments:
[1] = tested on: RF strain of HIV-1 in CEM-SS cells; experiment: HIV-1 cell protection assay (XTT dye reduction); type: cell-based
Method in brief: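 CEM-SS cells infected with HIV-1 RF (moi 0.025–0.819) or mock-infected, 2×10^4 cells/well with half-log compound dilutions for six days. Viability by XTT/PMS reduction (4 h), absorbance 450 nm, as % of uninfected untreated cells. Therapeutic index = CC50/EC50.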

[2] = molecular target: T1, Full-length wild type HIV-1 integrase (SF1) (Human immunodeficiency virus type 1 group M subtype B, UniProt P04585); experiment: Integrase strand-transfer scintillation proximity assay; type: biochemical; conditions: strand transfer, 50 min at 37° C., 246 nM integrase, 50 nM host DNA; read-out: IC50
T1 construct: made in house; host or cells: E. coli BL21 (DE3)
Method in brief: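 Recombinant full-length wild-type HIV-1 integrase (aa 1-288), E. coli-expressed, tested on biotinylated pre-processed U5 LTR viral ds-DNA with CA overhang bound to streptavidin SPA beads. [3H]-thymidine-labelled host ds-DNA serves as target; strand transfer read by scintillation proximity. A 3′ di-deoxy viral DNA control checks non-specific binding.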

[3] = Human immunodeficiency virus 1, CEM-SS, 144 h, HIV-1 RF, CEM-SS cells, XTT dye reduction, six days, read-out: EC50
[4] = HIV-1 RF, CEM-SS cells, XTT dye reduction, six days, read-out: EC50

Structure (SMILES)	EC50 [1, 3]	IC50 [2]	EC50 [1, 4]	EC50 ([1]; Human immunodeficiency virus 1, CEM-SS, 144 h)
O=C(CC(NCc1cn(Cc2ccc(F)cc2F)c2cnc(C(=O)NO)cc12)C1CC1)NC1CC1 (centres unmarked) [Example 101, 3-({[1-Cyclopropyl-3-(cyclopropylamino)-3-oxopropyl]amino}methyl)-1-(2,4-difluorobenzyl)-N-hydroxy-1H-pyrrolo[2,3-c]pyridine-5-carboxamide]	73 nM	472 nM	–	–
CC1CCCN1Cc1cn(Cc2ccc(F)cc2F)c2cnc(C(=O)NO)cc12 (centres unmarked) [Example 81, 1-(2,4-Difluorobenzyl)-N-hydroxy-3-[(2-methylpyrrolidin-1-yl)methyl]-1H-pyrrolo[2,3-c]pyridine-5-carboxamide]	40 nM	499 nM	–	–
CC(NCc1cn(Cc2ccc(F)cc2F)c2cnc(C(=O)NO)cc12)c1ccccc1 (centres unmarked) [Example 71, 1-(2,4-Difluorobenzyl)-N-hydroxy-3-{[(1-phenylethyl)amino]methyl}-1H-pyrrolo[2,3-c]pyridine-5-carboxamide]	44 nM	409 nM	–	–
O=C1CN(Cc2cn(Cc3ccc(F)cc3)c3cnc(C(=O)NOc4ccccc4)cc23)CCN1 [Example 104, 1-(4-Fluorobenzyl)-3-[(3-oxopiperazin-1-yl)methyl]-N-phenoxy-1H-pyrrolo[2,3-c]pyridine-5-carboxamide]	4.45 nM	182 nM	–	–
CONC(=O)c1ncc2c(ccn2Cc2ccc(F)cc2)c1O [Example 43, 1-(4-Fluorobenzyl)-4-hydroxy-N-methoxy-1H-pyrrolo[2,3-c]pyridine-5-carboxamide]	420 nM	371 nM	–	–
CN(CCc1ccccn1)Cc1cn(Cc2ccc(F)cc2F)c2cnc(C(=O)NO)cc12 [Example 63, 1-(2,4-Difluorobenzyl)-N-hydroxy-3-{[methyl(2-pyridin-2-ylethyl)amino]methyl}-1H-pyrrolo[2,3-c]pyridine-5-carboxamide]	16 nM	424 nM	–	–
C[C@@H](NCc1cn(Cc2ccc(F)cc2F)c2cnc(C(=O)NO)cc12)C1CCCCC1 [Example 76, 3-({[(1R)-1-Cyclohexylethyl]amino}methyl)-1-(2,4-difluorobenzyl)-N-hydroxy-1H-pyrrolo[2,3-c]pyridine-5-carboxamide]	91 nM	402 nM	–	–
CN1CCC(NCc2cn(Cc3ccc(F)cc3F)c3cnc(C(=O)NO)cc23)CC1 [Example 89, 1-(2,4-Difluorobenzyl)-N-hydroxy-3-{[(1-methylpiperidin-4-yl)amino]methyl}-1H-pyrrolo[2,3-c]pyridine-5-carboxamide]	52 nM	708 nM	–	–
O=C(NO)c1cc2c(CN[C@H](CO)Cc3ccccc3)cn(Cc3ccc(F)cc3F)c2cn1 [Example 64, 3-({[(1S)-1-Benzyl-2-hydroxyethyl]amino}methyl)-1-(2,4-difluorobenzyl)-N-hydroxy-1H-pyrrolo[2,3-c]pyridine-5-carboxamide]	17 nM	328 nM	–	–
CCN1CCCC1CNCc1cn(Cc2ccc(F)cc2F)c2cnc(C(=O)NO)cc12 (centres unmarked) [Example 45, 1-(2,4-Difluorobenzyl)-3-({[(1-ethylpyrrolidin-2-yl)methyl]amino}methyl)-N hydroxy-1H-pyrrolo[2,3-c]pyridine-5-carboxamide]	–	295 nM	51 nM	–
O=C(NO)c1ncc2c(ccn2Cc2ccc(F)cc2)c1O [Example 42, 1-(4-Fluorobenzyl)-N,4-dihydroxy-1H-pyrrolo[2,3-c]pyridine-5-carboxamide]	1 nM	27 nM	–	–
CC(C)OCCCNCc1cn(Cc2ccc(F)cc2F)c2cnc(C(=O)NO)cc12 [Example 83, 1-(2,4-Difluorobenzyl)-N-hydroxy-3-H{[(3-isopropoxypropyl)amino]methyl}-1H-pyrrolo[2,3-c]pyridine-5-carboxamide]	60 nM	952 nM	–	–
CCOCCOCc1cn(Cc2ccc(F)cc2)c2cnc(C(=O)N(C)O)cc12 [Example 120, 3-[(2-ethoxyethoxy)methyl]-1-(4-fluorobenzyl)-N-hydroxy-N-methyl-1H-pyrrolo[2,3-c]pyridine-5-carboxamide]	307 nM	57 nM	–	–
O=C(NO)c1cc2ccn(CCC3CCCCC3)c2cn1 [Example 26, 1-(2-Cyclohexylethyl)-N-hydroxy-1H-pyrrolo[2,3-c]pyridine-5-carboxamide]	3700 nM	770 nM	–	–
CCO/C=C/c1c(C(=O)NO)ncc2c1ccn2Cc1ccc(F)cc1 [Example 38, 4-[(E)-2-Ethoxyvinyl]-1-(4-fluorobenzyl)-N-hydroxy-1H-pyrrolo[2,3-c]pyridine-5-carboxamide]	12 nM	145 nM	–	–
CN(O)C(=O)c1cc2cnn(Cc3ccc(F)cc3)c2cn1 [Example 36, 1-(4-Fluorobenzyl)-N-hydroxy-N-methyl-1H-pyrazolo[3,4-c]pyridine-5-carboxamide]	390 nM	811 nM	–	–
C[C@@H](NCc1cn(Cc2ccc(F)cc2F)c2cnc(C(=O)NO)cc12)[C@@H](O)c1ccccc1 (stereo in doubt) [Example 86, 1-(2,4-Difluorobenzyl)-N-hydroxy-3-{[(2-hydroxy-1-methyl-2-phenylethyl)amino]methyl}-1H-pyrrolo[2,3-c]pyridine-5-carboxamide]	11 nM	314 nM	–	–
COCCOCc1cn(Cc2ccc(F)cc2F)c2cnc(C(=O)N(C)O)cc12 [Example 123, 1 (2,4-Difluorobenzyl)-N-hydroxy-3-[(2-methoxyethoxy)methyl]-N-methyl-1H-pyrrolo[2,3-c]pyridine-5-carboxamide]	–	51 nM	–	519 nM
O=C(NO)c1cc2c(CNCCO)cn(Cc3ccc(F)cc3F)c2cn1 [Example 80, 1-(2,4-Difluorobenzyl)-N-hydroxy-3-{[(2-hydroxyethyl)amino]methyl}-1H-pyrrolo[2,3-c]pyridine-5-carboxamide]	–	530 nM	10 nM	–
